# Laboratory results published in patent US20220039384A1, “SELECTIVE WEED CONTROL WITH HALAUXIFEN OR 4-AMINO-3-CHLORO-5-FLUORO-6-(4-CHLORO-2-FLUORO-3-METHOXYPHENYL) PYRIDINE-2-CARBOXYLIC ACID OR DERIVATIVES THEREOF IN VINEYARDS OR PERENNIAL CROPS” (Corteva Agriscience LLC, priority 2013, published 2022).
# What was measured:
# Type in all cases: in vivo
# [1] = tested on: AMSIN (Amsinckia intermedia, coast fiddleneck); test: Field trial, pre-emergence application (February), California vineyards: visual weed control
# Excerpt: (§1) As used herein, selective pre- and post-emergence control of undesirable vegetation means preventing, reducing, killing, or otherwise adversely modifying the development of the undesirable vegetation in the presence of crop plants with limited adverse effect on the crop plants. For example, a broadleaf weed control of 80% (rated visually) with crop injury of less than or equal to 20% (rated visually) would constitute selective control. In some embodiments the adverse effect on crop plants is limited to less than 10% visually rated crop injury. Visual crop injury is a composite rating accounting for all phytotoxic effects including chlorosis, necrosis, growth inhibition, epinasty, delays in maturity and seed or fruit deformity. Visual weed control is a composite rating accounting for reductions in pest plant biomass and/or stand reduction.
# (§2) Small plot research experiments were conducted in Fresno, Calif., USA to evaluate the pre-emergence and post-emergence herbicidal weed control activity and the vines crop tolerance to pre-emergence and post-emergence application of Compound I and Compound II to the weeds. Application water volume of 100 to 187 liters per hectare (L/ha) was used for all experiments. All treatments were applied with a standard small plot carbon dioxide (CO2) backpack sprayer. All treatments were tank-mixed with Crop Oil Concentrate (COC), a well known adjuvant, at 2.34 L/ha. Experimental emulsifiable concentrate (EC) formulations were used for Compounds I and II. The dimethylammonium (DMA) salt of glyphosate was used in all trials. Pindar® GT is a commercial formulation containing a pre-mix of penoxsulam+oxyfluorfen (10+476 grams of active ingredient per liter (g ai/L), respectively). Vine crop stage was dormant (no leaves on the vines during the winter) or early spring growth at the time of Compound I or Compound II application. Generally, weeds were not emerged for the pre-emergence treatments or were at the two to six-leaf stage at the time of the post-emergence herbicide application.
# (§3) Tables 1, 2 and 6 provide weed control results from pre-emergence applications of Compounds I and/or II prior to weed emergence; Tables 4, 7 and 8 provide weed control results from post-emergence applications of Compounds I and/or II applied to actively growing weeds; Tables 3 and 5 provide vine response data from pre-emergence and post-emergence applications of Compound I respectively.
# [2] = tested on: CAPBP (Capsella bursa-pastoris, Shepherd's purse); test: as above
# Excerpt: as §1, §2, §3
# [3] = tested on: CLNCM (Calandrinia ciliata, rock purslane); test: as above
# Excerpt: as §1, §2, §3
# [4] = tested on: EROCI (Erodium cicutarium, redstem filaree); test: Field trial, post-emergence directed spring application (March), California vineyards: visual weed control
# Excerpt: as §1, §2, §3
# [5] = tested on: MALPA (Malva parviflora, smallflower malva); test: as above
# Excerpt: as §1, §2, §3
# [6] = tested on: MEDPO (Medicago polymorpha, California burclover); test: as above
# Excerpt: as §1, §2, §3
# [7] = tested on: STEME (Stellaria media, common chickweed); test: as above
# Excerpt: as §1, §2, §3
# [8] = tested on: AMARE (Amaranthus retroflexus, redroot pigweed); test: Field trial, post-emergence directed dormant application (December), California vineyards: visual weed control
# Excerpt: as §1, §2, §3
# [9] = tested on: AMSIN (Amsinckia intermedia, coast fiddleneck); test: as above
# Excerpt: as §1, §2, §3
# [10] = tested on: CAPBP (Capsella bursa-pastoris, Shepherd's purse); test: as above
# Excerpt: as §1, §2, §3
# [11] = tested on: CHEAL (Chenopodium album, common lambsquarters); test: as above
# Excerpt: as §1, §2, §3
# [12] = tested on: IPOSS (Ipomoea spp, morningglory); test: as above
# Excerpt: as §1, §2, §3
smiles,measurement,setting,value
"O=C(O)CNCP(=O)(O)O [Glyphosate, glyphosate, reference compound]",% Visual Control 48 DAA AMSIN,[1]; 1680 g ae/ha,0%
same,% Visual Control 48 DAA CAPBP,[2]; 1680 g ae/ha,0%
same,% Visual Control 48 DAA CLNCM,[3]; 1680 g ae/ha,0%
same,% Visual Control 59 DAA EROCI,[4]; 1680 g ae/ha,91%
same,% Visual Control 59 DAA MALPA,[5]; 1680 g ae/ha,86.7%
same,% Visual Control 59 DAA MEDPO,[6]; 1680 g ae/ha,100%
same,% Visual Control 59 DAA STEME,[7]; 1680 g ae/ha,93.3%
same,% Visual Control 57 DAA AMARE,[8]; 1680 g ae/ha,0%
same,% Visual Control 57 DAA AMSIN,[9]; 1680 g ae/ha,100%
same,% Visual Control 57 DAA CAPBP,[10]; 1680 g ae/ha,99.3%
same,% Visual Control 57 DAA CHEAL,[11]; 1680 g ae/ha,95%
same,% Visual Control 57 DAA IPOSS,[12]; 1680 g ae/ha,51.7%
"COc1c(Cl)ccc(-c2nc(C(=O)OCc3ccccc3)c(Cl)c(N)c2F)c1F [II-Bn, benzyl 4-amino-3-chloro-5-fluoro-6-(4-chloro-2-fluoro-3-methoxyphenyl)pyridine-2-carboxylate]",% Visual Control 48 DAA AMSIN,[1]; 5 g ai/ha,0%
same,% Visual Control 48 DAA AMSIN,[1]; 10 g ai/ha,33.3%
same,% Visual Control 48 DAA AMSIN,[1]; 20 g ai/ha,40%
same,% Visual Control 48 DAA AMSIN,[1]; 40 g ai/ha,87.3%
same,% Visual Control 48 DAA AMSIN,[1]; 50 g ai/ha,84.3%
same,% Visual Control 48 DAA CAPBP,[2]; 5 g ai/ha,0%
same,% Visual Control 48 DAA CAPBP,[2]; 10 g ai/ha,60%
same,% Visual Control 48 DAA CAPBP,[2]; 20 g ai/ha,76.7%
same,% Visual Control 48 DAA CAPBP,[2]; 40 g ai/ha,100%
same,% Visual Control 48 DAA CAPBP,[2]; 50 g ai/ha,96.7%
same,% Visual Control 48 DAA CLNCM,[3]; 5 g ai/ha,0%
same,% Visual Control 48 DAA CLNCM,[3]; 10 g ai/ha,40%
same,% Visual Control 48 DAA CLNCM,[3]; 20 g ai/ha,56.7%
same,% Visual Control 48 DAA CLNCM,[3]; 40 g ai/ha,90%
same,% Visual Control 48 DAA CLNCM,[3]; 50 g ai/ha,96.7%
same,% Visual Control 59 DAA EROCI,[4]; 5 g ai/ha,81.7%
same,% Visual Control 59 DAA EROCI,[4]; 10 g ai/ha,85%
same,% Visual Control 59 DAA EROCI,[4]; 20 g ai/ha,85%
same,% Visual Control 59 DAA EROCI,[4]; 40 g ai/ha,94.3%
same,% Visual Control 59 DAA EROCI,[4]; 50 g ai/ha,96%
same,% Visual Control 59 DAA MALPA,[5]; 5 g ai/ha,61.9%
same,% Visual Control 59 DAA MALPA,[5]; 10 g ai/ha,83.4%
same,% Visual Control 59 DAA MALPA,[5]; 20 g ai/ha,90%
same,% Visual Control 59 DAA MALPA,[5]; 40 g ai/ha,95%
same,% Visual Control 59 DAA MALPA,[5]; 50 g ai/ha,96.7%
same,% Visual Control 59 DAA MEDPO,[6]; 5 g ai/ha,100%
same,% Visual Control 59 DAA MEDPO,[6]; 10 g ai/ha,100%
same,% Visual Control 59 DAA MEDPO,[6]; 20 g ai/ha,100%
same,% Visual Control 59 DAA MEDPO,[6]; 40 g ai/ha,100%
same,% Visual Control 59 DAA MEDPO,[6]; 50 g ai/ha,100%
same,% Visual Control 59 DAA STEME,[7]; 5 g ai/ha,70%
same,% Visual Control 59 DAA STEME,[7]; 10 g ai/ha,75%
same,% Visual Control 59 DAA STEME,[7]; 20 g ai/ha,84.3%
same,% Visual Control 59 DAA STEME,[7]; 40 g ai/ha,94.3%
same,% Visual Control 59 DAA STEME,[7]; 50 g ai/ha,97.3%
same,% Visual Control 57 DAA AMARE,[8]; 5 g ai/ha,100%
same,% Visual Control 57 DAA AMARE,[8]; 10 g ai/ha,95%
same,% Visual Control 57 DAA AMARE,[8]; 20 g ai/ha,100%
same,% Visual Control 57 DAA AMARE,[8]; 40 g ai/ha,100%
same,% Visual Control 57 DAA AMARE,[8]; 50 g ai/ha,100%
same,% Visual Control 57 DAA AMSIN,[9]; 5 g ai/ha,56.7%
same,% Visual Control 57 DAA AMSIN,[9]; 10 g ai/ha,96.7%
same,% Visual Control 57 DAA AMSIN,[9]; 20 g ai/ha,86.7%
same,% Visual Control 57 DAA AMSIN,[9]; 40 g ai/ha,100%
same,% Visual Control 57 DAA AMSIN,[9]; 50 g ai/ha,100%
same,% Visual Control 57 DAA CAPBP,[10]; 5 g ai/ha,100%
same,% Visual Control 57 DAA CAPBP,[10]; 10 g ai/ha,100%
same,% Visual Control 57 DAA CAPBP,[10]; 20 g ai/ha,100%
same,% Visual Control 57 DAA CAPBP,[10]; 40 g ai/ha,100%
same,% Visual Control 57 DAA CAPBP,[10]; 50 g ai/ha,100%
same,% Visual Control 57 DAA CHEAL,[11]; 5 g ai/ha,96.7%
same,% Visual Control 57 DAA CHEAL,[11]; 10 g ai/ha,100%
same,% Visual Control 57 DAA CHEAL,[11]; 20 g ai/ha,100%
same,% Visual Control 57 DAA CHEAL,[11]; 40 g ai/ha,100%
same,% Visual Control 57 DAA CHEAL,[11]; 50 g ai/ha,100%
same,% Visual Control 57 DAA IPOSS,[12]; 5 g ai/ha,55%
same,% Visual Control 57 DAA IPOSS,[12]; 10 g ai/ha,46.7%
same,% Visual Control 57 DAA IPOSS,[12]; 20 g ai/ha,66.7%
same,% Visual Control 57 DAA IPOSS,[12]; 40 g ai/ha,66.7%
same,% Visual Control 57 DAA IPOSS,[12]; 50 g ai/ha,97.3%
